Laboratory results taken from patent US20240327423A1, “A SERIES OF PYRROLE DERIVATIVES AND THEIR PREPARATION METHOD AND THERAPEUTIC USE” (SHENZHEN SUNGENING BIO-MEDICAL CO., LTD, priority 2020, published 2024).
Values after ≈ are worked out from the molar mass of the structure shown.

Experiments:
[1] = system: Aspergillus fumigatus (ATCC-204305); test: Measurement of minimum inhibitory concentration (MIC), ATCC 204305; format: cell-based; conditions: ATCC204305; Aspergillus fumigatus ATCC 204305, 35° C., 48 hours
Method: New streaks are made with glycerol stock solution of the strains of Aspergillus [NT] MYA-4609/AF 293/CBS 101355) on Sabouraud's dextrose agar (SDA), incubate at 35° C. and a humidity of 40-70% for 72 hours. Other strains are processed as the same as AF293. RPMI1640: one packet of RPMI1640 powder is dissolved in 1 L purified water and mixed well, add 0.165M MOPS, adjust the pH to 7.0, sterilize by filtration with 0.22 um membrane, and store at 4° C. for no more than 3 months. Physiological saline: weigh 9 g of sodium chloride powder and dissolve in 1 L of purified water, and mixed well. […] Dissolve the test compound and stock solution of one control compound with DMSO and obtain solutions at a concentration of 12.8 mg/mL The maximum concentration of each compound is 0.8 mg/mL (e.g., 150 μL of dimethyl sulfoxide+10 uL of 12.8 mg/mL compound/control). […] Repeat the above steps up to column 11 to give 2× serial dilutions. 2 μL of the above 2× serial dilutions are injected into each hole of the corresponding test plate using a multichannel pipette. Drop 5 ml of saline on the Aspergillus fumigatus SDA plate. The spores were carefully wiped off from the surface of the plate with an L-shaped coating rod. Then the suspension is transferred into a sterile tube. After shaking, let the tube stand for 5 to 10 minutes. Count the number of spores in the upper suspension with a hemocytometer and check the purity. Adjust the inoculum concentration to 0.2-2.5×10^4 spores/mL. Inject 198 μL of diluted inoculum into each holes of the corresponding test plate using a multichannel pipette. Incubate at 35° C. for 48 hours. […] To facilitate scoring of the presence or absence of growth on the wall, a magnifying glass is used. The tested 96-well microplates were photographed and the optical density at 530 nm is read with an enzyme marker (Tecan Spark).

[2] = system: Aspergillus flavus (ATCC MYA-1004); test: Measurement of minimum inhibitory concentration (MIC), ATCC MYA-1004; format: cell-based; conditions: Aspergillus flavus ATCC MYA-1004, 35° C., 48 hours
Method: New streaks are made with glycerol stock solution of the strains of Aspergillus fumigatus (ATCC MYA-4609/AF 293/CBS 101355) on Sabouraud's dextrose agar (SDA), incubate at 35° C. and a humidity of 40-70% for 72 hours. Other strains are processed as the same as AF293.
RPMI1640: one packet of RPMI1640 powder is dissolved in 1 L purified water and mixed well, add 0.165M MOPS, adjust the pH to 7.0, sterilize by filtration with 0.22 um membrane, and store at 4° C. for no more than 3 months.
Physiological saline: weigh 9 g of sodium chloride powder and dissolve in 1 L of purified water, and mixed well. Sterilize at 121° C. for 30 min, store at room temperature (RT) for no more than 1 week.
Dissolve the test compound and stock solution of one control compound with DMSO and obtain solutions at a concentration of 12.8 mg/mL
The maximum concentration of each compound is 0.8 mg/mL (e.g., 150 μL of dimethyl sulfoxide+10 uL of 12.8 mg/mL compound/control). Column 1 is filled with 40 μL of compound and columns 2 to 11 with 20 μL of dimethyl sulfoxide. Transfer 20 μL of compound from column 1 to column 2 to dilute the concentration. Repeat the above steps up to column 11 to give 2× serial dilutions.
2 μL of the above 2× serial dilutions are injected into each hole of the corresponding test plate using a multichannel pipette.
Drop 5 ml of saline on the Aspergillus fumigatus SDA plate. The spores were carefully wiped off from the surface of the plate with an L-shaped coating rod. Then the suspension is transferred into a sterile tube. After shaking, let the tube stand for 5 to 10 minutes. Count the number of spores in the upper suspension with a hemocytometer and check the purity. Adjust the inoculum concentration to 0.2-2.5×10^4 spores/mL.
Inject 198 μL of diluted inoculum into each holes of the corresponding test plate using a multichannel pipette.
Incubate at 35° C. for 48 hours.
To facilitate scoring of the presence or absence of growth on the wall, a magnifying glass is used. The tested 96-well microplates were photographed and the optical density at 530 nm is read with an enzyme marker (Tecan Spark).

[3] = Liver microsomal stability test, mouse; format: in vitro ADME; conditions: Mouse liver microsomes; for CLint scaled / half-life: 0.5 mg/mL protein, 37° C., NADPH
Method: • 1: Add 10 μL of working solutions of test product or reference product and 80 μL of microsomal working solution (liver microsomal protein concentration of 0.5 mg/mL) to wells of TO, T5, T10, T20, T30, T60, and NCF60, and only microsomal working solution is added to the Blank60 wells. Then the samples of Blank60, T10, T20, T30 and T60, except for TO and NCF60, are placed in a water bath set at 37° C. and incubate for approximately 10 mins; • 2: Add 300 μL of termination solution (acetonitrile solution containing 200 ng/mL tolbutamide and 200 ng/mL labetalol) to Sample TO, followed by 10 ul of NADPH regeneration system working solution; • 3: After incubation of Blank60, T5, T10, T20, T30 and T60 on incubation plates, add 10 μL of NADPH regeneration system working solution to each sample well to start the reaction, and 10 uL of 100 mM potassium phosphate buffer is add to the NCF60 sample wells; • 4: After incubation for appropriate times (e.g., 5, 10, 20, 30 and 60 mins), 300 μL of termination solution is add to each sample well of test product and reference product on Blank60, T5, T10, T20, T30, T60 and NCF60 plates, respectively, to terminate the reaction. • 5: All sample plates are shaken well and centrifuged at 4000 rpm for 20 min, take 100 μL of the supernatant of the test product or reference product, dilute in 300 μL of pure water for LC-MS/MS analysis, respectively. • 6: Data analysis, T½ and CLint(mic) (μL/min/mg) values are calculated based on the first-order elimination kinetics, and the equations of first-order elimination kinetics are: […]

Cc1cc(-c2ccccc2)c(C(=O)C(=O)Nc2ccc(N3CCN(c4ncc(F)cn4)CC3)cc2)n1C [Example F901318, reference compound]
MIC [1]: 0.016 µg/mL (≈ 0.0321 µM)
MIC [2]: 0.004 µg/mL (≈ 0.00802 µM)
CLint scaled [3]: 98.9 mL/min/kg
half-life [3]: 25.2 min
Remaining, (T = 60 min) [3]: 18.7%

Cc1cc(-c2ccccc2)c(C(=O)C(=O)Nc2cc(F)c3c(c2)OC[C@H]2CN(c4ncc(F)cn4)CCN32)n1C [Example 5]
MIC [1]: 0.016 µg/mL (≈ 0.0294 µM)
MIC [2]: 0.004 µg/mL (≈ 0.00735 µM)
CLint scaled [3]: 115 mL/min/kg
half-life [3]: 21.8 min
Remaining, (T = 60 min) [3]: 15.7%

Cc1cc(-c2ccccc2)c(C(=O)C(=O)Nc2ccc3c(c2)C[C@H]2CN(c4ncc(F)cn4)CCN32)n1C [Example 33, (S)-2-(1,5-dimethyl-3-phenyl-1H-pyrrol-2-yl)-N-(2-(5-fluoropyrimidin-2-yl)-1,2,3,4,10,10a-hexahydropyrazino[1,2-a]indol-8-yl)-2-oxoacetamide]
MIC [1]: 0.016 µg/mL (≈ 0.0313 µM)
MIC [2]: 0.008 µg/mL (≈ 0.0157 µM)
CLint scaled [3]: 50.2 mL/min/kg
half-life [3]: 49.6 min
Remaining, (T = 60 min) [3]: 44.8%
